Assay results from PubChem BioAssay (NCI).
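Test compounds were applied to cells in 96-well plates for 48 hours at 5 doses. Here, GI50 denotes the concentration required for 50% inhibition of growth. TGI is the concentration that stops growth completely.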

Experiments:
Experiment in all cases: DTP human tumour cell line panel, 48 h
[1] = system: 786-0 renal
[2] = system: A498 renal
[3] = system: A549 NSCLC
[4] = system: ACHN renal
[5] = system: BT-549 breast
[6] = system: CAKI-1 renal
[7] = system: CCRF-CEM leukemia
[8] = system: COLO 205 colon
[9] = system: DU-145 prostate
[10] = system: EKVX NSCLC
[11] = system: HCC-2998 colon
[12] = system: HCT-116 colon
[13] = system: HCT-15 colon
[14] = system: HL-60(TB) leukemia
[15] = system: HOP-62 NSCLC
[16] = system: HOP-92 NSCLC
[17] = system: HS 578T breast
[18] = system: HT29 colon
[19] = system: IGROV1 ovarian
[20] = system: K-562 leukemia
[21] = system: KM12 colon
[22] = system: LOX IMVI melanoma
[23] = system: M14 melanoma
[24] = system: MALME-3M melanoma
[25] = system: MCF7 breast
[26] = system: MDA-MB-231 breast
[27] = system: MDA-MB-435
[28] = system: MDA-MB-468 breast
[29] = system: MOLT-4 leukemia
[30] = system: NCI-H226 lung
[31] = system: NCI-H23 lung
[32] = system: NCI-H460 lung
[33] = system: NCI-H522 lung
[34] = system: OVCAR-3 ovarian
[35] = system: OVCAR-4 ovarian
[36] = system: OVCAR-5 ovarian
[37] = system: OVCAR-8 ovarian
[38] = system: PC-3 prostate
[39] = system: RPMI-8226 leukemia
[40] = system: RXF 393 renal
[41] = system: SF-268 CNS
[42] = system: SF-295 CNS
[43] = system: SF-539 CNS
[44] = system: SK-MEL-2 melanoma
[45] = system: SK-MEL-28 melanoma
[46] = system: SK-MEL-5 melanoma
[47] = system: SK-OV-3 ovarian
[48] = system: SN12C renal
[49] = system: SNB-19 CNS
[50] = system: SNB-75 CNS
[51] = system: SR leukemia
[52] = system: SW-620 colon
[53] = system: T-47D breast
[54] = system: TK-10 renal
[55] = system: U251 CNS
[56] = system: UACC-257 melanoma
[57] = system: UACC-62 melanoma
[58] = system: UO-31 renal

O=C1Nc2ccc(F)cc2/C1=C/c1cccc(OCc2ccccc2)c1
GI50 [1]: 14.5 µM
TGI [1]: 29.5 µM
GI50 [2]: 29.7 µM
TGI [2]: > 100 µM
GI50 [3]: 18.6 µM
TGI [3]: 75 µM
GI50 [4]: 13.5 µM
TGI [4]: 26.5 µM
GI50 [5]: 10.5 µM
TGI [5]: 23.4 µM
GI50 [6]: 8.46 µM
TGI [6]: 21.7 µM
GI50 [7]: 12.4 µM
TGI [7]: 35.2 µM
GI50 [8]: 17.8 µM
TGI [8]: 35.5 µM
GI50 [9]: 14.8 µM
TGI [9]: 31.4 µM
GI50 [10]: 12.8 µM
TGI [10]: 27.8 µM
GI50 [11]: 16.3 µM
TGI [11]: 31.7 µM
GI50 [12]: 10.5 µM
TGI [12]: 25.9 µM
GI50 [13]: 11.9 µM
TGI [13]: 29.3 µM
GI50 [14]: 11.7 µM
TGI [14]: 34.1 µM
GI50 [15]: 16.2 µM
TGI [15]: 37.1 µM
GI50 [16]: 3.76 µM
TGI [16]: 17.1 µM
GI50 [17]: 15.4 µM
TGI [17]: 57.9 µM
GI50 [18]: 17.8 µM
TGI [18]: 35.4 µM
GI50 [19]: 13.4 µM
TGI [19]: 27.1 µM
GI50 [20]: 10.5 µM
TGI [20]: 31.8 µM
GI50 [21]: 13.7 µM
TGI [21]: 32.4 µM
GI50 [22]: 8.51 µM
TGI [22]: 28.7 µM
GI50 [23]: 14.9 µM
TGI [23]: 31.5 µM
GI50 [24]: 15.5 µM
TGI [24]: 29 µM
GI50 [25]: 5.44 µM
TGI [25]: 21.8 µM
GI50 [26]: 13.8 µM
TGI [26]: 29.2 µM
GI50 [27]: 15.1 µM
TGI [27]: 29 µM
GI50 [28]: 10.8 µM
TGI [28]: 23.6 µM
GI50 [29]: 6.85 µM
TGI [29]: 30.2 µM
GI50 [30]: 12.5 µM
TGI [30]: 27.1 µM
GI50 [31]: 11.7 µM
TGI [31]: 27.5 µM
GI50 [32]: 14.1 µM
TGI [32]: 28.7 µM
GI50 [33]: 12.4 µM
TGI [33]: 27.3 µM
GI50 [34]: 11.8 µM
TGI [34]: 24.7 µM
GI50 [35]: 9.89 µM
TGI [35]: 30.2 µM
GI50 [36]: 16.5 µM
TGI [36]: 30.6 µM
GI50 [37]: 20.1 µM
TGI [37]: 57.8 µM
GI50 [38]: 13.8 µM
TGI [38]: 30.3 µM
GI50 [39]: 10.7 µM
TGI [39]: 30.7 µM
GI50 [40]: 13.7 µM
TGI [40]: 29.8 µM
GI50 [41]: 14 µM
TGI [41]: 34.2 µM
GI50 [42]: 15.2 µM
TGI [42]: 34.2 µM
GI50 [43]: 14.8 µM
TGI [43]: 28.1 µM
GI50 [44]: 12.9 µM
TGI [44]: 27.8 µM
GI50 [45]: 16 µM
TGI [45]: 30.1 µM
GI50 [46]: 15.8 µM
TGI [46]: 29.8 µM
GI50 [47]: 16.7 µM
TGI [47]: 39.4 µM
GI50 [48]: 13.4 µM
TGI [48]: 26.8 µM
GI50 [49]: 14.2 µM
TGI [49]: 29.2 µM
GI50 [50]: 14.7 µM
TGI [50]: 43.3 µM
GI50 [51]: 4.83 µM
TGI [51]: 23.1 µM
GI50 [52]: 15.1 µM
TGI [52]: 29.4 µM
GI50 [53]: 12.1 µM
TGI [53]: 62 µM
GI50 [54]: 19.6 µM
TGI [54]: 41.9 µM
GI50 [55]: 12.6 µM
TGI [55]: 32.6 µM
GI50 [56]: 16.8 µM
TGI [56]: 36.2 µM
GI50 [57]: 10.4 µM
TGI [57]: 22.5 µM
GI50 [58]: 10 µM
TGI [58]: 21.7 µM
